≈ marks a conversion by molar mass, not a printed value. Values belong to the compound of their own block, whether it stands above or below them.
Assays:
[1] = molecular target: Beta-lactamase (Enterobacter cloacae) (UniProt P05364); assay: Minimum inhibitory concentration of 10 ug/ml compound in combination with amoxycillin against Enterobacter cloacae N-1 organism; assay type: functional
Staphylococcus aureus [2] = assay: Minimum inhibitory concentration of 10 ug/ml compound in combination with amoxycillin against Staphylococcus aureus MB9 organism; assay type: functional
Proteus mirabilis = assay: Compound was tested for the inhibitory activity against Proteus mirabilis carbenicillinase
[3] = molecular target: Beta-lactamase (Enterobacter cloacae) (UniProt P05364); assay: Compound was tested for the inhibitory activity against Enterobacter cloacae P99 serine beta-lactamase
[4] = molecular target: Beta-lactamase (Enterobacter cloacae) (UniProt P05364)
Description: Antibacterial activity against Enterobacter cloacae N-1 organism, activity expressed as MIC(minimum inhibitory concentration)

[5] = molecular target: Beta-lactamase TEM (Escherichia coli) (UniProt P62593)
Chain of Beta-lactamase TEM (Escherichia coli) (P62593 whole entry): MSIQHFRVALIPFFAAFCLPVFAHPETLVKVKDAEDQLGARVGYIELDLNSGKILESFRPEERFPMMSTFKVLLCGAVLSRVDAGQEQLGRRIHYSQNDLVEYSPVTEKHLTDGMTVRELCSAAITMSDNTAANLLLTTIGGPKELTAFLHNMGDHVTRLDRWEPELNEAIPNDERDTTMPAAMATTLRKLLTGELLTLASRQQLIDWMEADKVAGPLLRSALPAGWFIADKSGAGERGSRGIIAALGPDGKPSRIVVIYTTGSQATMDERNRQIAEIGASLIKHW

[6] = molecular target: Beta-lactamase (Staphylococcus aureus) (UniProt P00807); assay: Inhibitory activity against Staphylococcus aureus penicillinase
[7] = molecular target: Beta-lactamase TEM (Escherichia coli) (UniProt P62593); assay: Inhibitory activity against Escherichia coli TEM-1 serine beta-lactamase
Staphylococcus aureus [8] = assay: Antibacterial activity against Staphylococcus aureus MB9 organism, activity expressed as MIC(minimum inhibitory concentration); assay type: functional
[9] = molecular target: Beta-lactamase OXA-1 (Escherichia coli) (UniProt P13661); assay: Compound was tested for the inhibitory activity against Escherichia coli OXA-1 serine beta-lactamase
Chain of Beta-lactamase OXA-1 (Escherichia coli) (P13661 whole entry): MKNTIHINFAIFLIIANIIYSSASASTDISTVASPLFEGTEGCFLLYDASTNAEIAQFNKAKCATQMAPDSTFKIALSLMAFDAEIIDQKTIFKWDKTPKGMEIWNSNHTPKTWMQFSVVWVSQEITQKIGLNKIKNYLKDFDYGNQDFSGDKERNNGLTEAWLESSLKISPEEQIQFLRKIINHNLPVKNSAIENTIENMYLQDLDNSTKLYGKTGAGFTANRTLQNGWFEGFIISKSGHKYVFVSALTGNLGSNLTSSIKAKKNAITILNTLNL

[10] = molecular target: T1, SHV-5 extended spectrum beta-lactamase (Escherichia coli) (UniProt Q6REX6); assay: Compound was tested for the inhibitory activity against Escherichia coli SHV-5 serine beta-lactamase
T1 sequence (whole entry): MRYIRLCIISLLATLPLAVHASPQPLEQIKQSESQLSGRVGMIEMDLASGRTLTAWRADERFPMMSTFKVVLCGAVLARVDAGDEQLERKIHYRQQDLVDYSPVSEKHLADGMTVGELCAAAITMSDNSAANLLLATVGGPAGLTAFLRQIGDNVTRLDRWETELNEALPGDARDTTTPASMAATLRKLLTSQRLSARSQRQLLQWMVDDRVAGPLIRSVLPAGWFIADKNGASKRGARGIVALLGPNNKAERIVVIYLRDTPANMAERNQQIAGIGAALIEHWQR

[11] = molecular target: T2, Beta-lactamase PSE-4 (Pseudomonas aeruginosa) (UniProt P16897); assay: Compound was tested for the inhibitory activity against Pseudomonas aeruginosa PSE-4 serine beta-lactamase
T2 sequence (whole entry): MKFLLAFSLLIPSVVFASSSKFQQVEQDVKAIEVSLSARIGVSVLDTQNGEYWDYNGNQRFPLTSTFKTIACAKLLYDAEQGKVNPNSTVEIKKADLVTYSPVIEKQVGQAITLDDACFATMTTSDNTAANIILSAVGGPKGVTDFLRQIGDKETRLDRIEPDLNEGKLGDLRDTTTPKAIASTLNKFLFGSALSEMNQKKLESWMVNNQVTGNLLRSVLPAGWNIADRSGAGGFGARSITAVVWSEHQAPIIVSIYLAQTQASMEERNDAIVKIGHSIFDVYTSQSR

[12] = molecular target: Beta-lactamase (Enterobacter cloacae) (UniProt P05364); assay: Minimum inhibitory concentration of 10 ug/ml compound in combination with amoxycillin against Enterobacter cloacae N-1 organism,; assay type: functional
Staphylococcus aureus [13] = assay: Minimum inhibitory concentration against Staphylococcus aureus MB9 organism; assay type: functional
Staphylococcus aureus [14] = assay: Minimum inhibitory concentration of 4 ug/ml compound in combination with amoxycillin against Staphylococcus aureus MB9 organism; assay type: functional
[15] = molecular target: Beta-lactamase (Enterobacter cloacae) (UniProt P05364); remark: listed apart in the source
Description: Minimum inhibitory concentration against Enterobacter cloacae N-1 organism

[16] = molecular target: Beta-lactamase TEM (Escherichia coli) (UniProt P62593); assay: Minimum inhibitory concentration of 4 ug/ml compound in combination with amoxycillin against Escherichia coli E96P organism; assay type: functional
[17] = molecular target: Beta-lactamase (Enterobacter cloacae) (UniProt P05364); remark: listed apart in the source
Description: Minimum inhibitory concentration of 4 ug/ml compound in combination with amoxycillin against Enterobacter cloacae N-1 organism

Chain of Beta-lactamase (Enterobacter cloacae) (P05364 21-381 limits assumed): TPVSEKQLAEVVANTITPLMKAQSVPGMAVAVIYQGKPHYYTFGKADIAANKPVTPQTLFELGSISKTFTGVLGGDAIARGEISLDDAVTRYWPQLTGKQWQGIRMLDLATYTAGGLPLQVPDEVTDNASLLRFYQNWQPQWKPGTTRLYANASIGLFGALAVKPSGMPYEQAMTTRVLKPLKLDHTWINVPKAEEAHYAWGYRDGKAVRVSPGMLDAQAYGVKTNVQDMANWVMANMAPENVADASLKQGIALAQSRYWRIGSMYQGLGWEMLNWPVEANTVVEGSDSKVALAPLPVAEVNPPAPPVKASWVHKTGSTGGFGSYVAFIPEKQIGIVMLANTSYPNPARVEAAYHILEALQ

Structure (SMILES): CC1(C)S[C@@H]2[C@H](NC(=O)C(N)c3ccc(O)cc3)C(=O)N2[C@H]1C(=O)O.O=C(O)CCNP(=O)(O)CNC(=O)OCc1ccccc1 (stereo partly specified)
MIC [1]: 44 µg/mL

Structure (SMILES): CC1(C)S[C@@H]2[C@H](NC(=O)C(N)c3ccc(O)cc3)C(=O)N2[C@H]1C(=O)O.O=C(NCP(=O)([O-])NC(C(=O)[O-])c1ccccc1)OCc1ccccc1.[Li+].[Li+] (stereo unspecified)
MIC (Staphylococcus aureus [2]): 64 µg/mL

Structure (SMILES): CC1(C)S[C@@H]2[C@H](NC(=O)C(N)c3ccc(O)cc3)C(=O)N2[C@H]1C(=O)O.O=C(NCP(=O)(O)N[C@H](Cc1ccccc1)C(=O)O)OCc1ccccc1
MIC [1]: 128 µg/mL

Structure (SMILES): O=C(O)[C@H]1/C(=C/CO)O[C@@H]2CC(=O)N21 [CLAVULANIC ACID]
ID50 (Proteus mirabilis): 0.51 µM | ID50 [3]: 310 µM | MIC [4]: 32 µg/mL (≈ 161 µM) | MIC [5]: 32 µg/mL (≈ 161 µM) | ID50 [6]: 0.38 µM | ID50 [7]: 0.315 µM | MIC (Staphylococcus aureus [8]): 32 µg/mL (≈ 161 µM) | ID50 [9]: 3.4 µM | ID50 [10]: 0.013 µM | ID50 [11]: 0.235 µM

Structure (SMILES): O=C(O)CC(NP(=O)(O)CNC(=O)OCc1ccccc1)c1ccccc1 (stereo unspecified)
ID50 (Proteus mirabilis): > 100 µM | ID50 [3]: 0.87 µM | ID50 [6]: > 35 µM | ID50 [7]: > 50 µM | ID50 [9]: 46 µM | ID50 [10]: 63 µM | ID50 [11]: 83 µM

Structure (SMILES): O=C(NCP(=O)(O)N[C@@H](Cc1ccccc1)C(=O)O)OCc1ccccc1
ID50 (Proteus mirabilis): > 100 µM | ID50 [3]: 0.75 µM | ID50 [6]: > 33 µM | ID50 [7]: > 50 µM | ID50 [9]: 60 µM | ID50 [10]: > 100 µM | ID50 [11]: 15 µM

Structure (SMILES): CC1(C)S[C@@H]2[C@H](NC(=O)C(N)c3ccc(O)cc3)C(=O)N2[C@H]1C(=O)O.O=C(O)CNP(=O)(O)CNC(=O)OCc1ccccc1 (stereo partly specified)
MIC [12]: 32 µg/mL

ID50 [3]: > 100 µM | ID50 [6]: > 100 µM | ID50 [7]: > 100 µM
Structure (SMILES): O=C(O)CNCP(=O)(O)CNC(=O)OCc1ccccc1

Structure (SMILES): CC1(C)S[C@@H]2[C@H](NC(=O)C(N)c3ccc(O)cc3)C(=O)N2[C@H]1C(=O)O.O=C([O-])CNP(=O)([O-])CNC(=O)OCc1ccccc1.[Li+].[Li+] (stereo partly specified)
MIC (Staphylococcus aureus [2]): 64 µg/mL

Structure (SMILES): CC1(C)S[C@@H]2[C@H](NC(=O)C(N)c3ccc(O)cc3)C(=O)N2[C@H]1C(=O)O.O=C(NCP(=O)([O-])N[C@H](Cc1ccccc1)C(=O)[O-])OCc1ccccc1.[Li+].[Li+]
MIC (Staphylococcus aureus [2]): 64 µg/mL

Structure (SMILES): O=C(NCP(=O)(O)N[C@H](Cc1ccccc1)C(=O)O)OCc1ccccc1
ID50 (Proteus mirabilis): > 100 µM | ID50 [3]: 3.8 µM | ID50 [6]: > 100 µM | ID50 [7]: > 100 µM | ID50 [9]: > 100 µM | ID50 [10]: > 100 µM | ID50 [11]: > 100 µM

Structure (SMILES): O=C(O)CNP(=O)(O)CNC(=O)OCc1ccccc1
ID50 (Proteus mirabilis): > 100 µM | ID50 [3]: 2.29 µg/mL | ID50 [6]: > 100 µg/mL | ID50 [7]: > 100 µg/mL | ID50 [9]: 30 µM | ID50 [10]: > 100 µM | ID50 [11]: > 100 µM

Structure (SMILES): CC1(C)S[C@@H]2[C@H](NC(=O)[C@H](N)c3ccc(O)cc3)C(=O)N2[C@H]1C(=O)O [AMOXICILLIN]
MIC (Staphylococcus aureus [13]): 256 µg/mL (≈ 701 µM)

Structure (SMILES): CC1(C)S[C@@H]2[C@H](NC(=O)C(N)c3ccc(O)cc3)C(=O)N2[C@H]1C(=O)O.O=C(O)CC(NP(=O)(O)CNC(=O)OCc1ccccc1)c1ccccc1 (stereo unspecified)
MIC [1]: 16 µg/mL

ID50 [3]: 54 µM | ID50 [6]: > 100 µM | ID50 [7]: > 100 µM
Structure (SMILES): COP(=O)(CNC(=O)OCc1ccccc1)N1CCC[C@H]1C(=O)O (stereo partly specified)

Structure (SMILES): CC1(C)S[C@@H]2[C@H](NC(=O)[C@H](N)c3ccc(O)cc3)C(=O)N2[C@H]1C(=O)O.O=C(O)[C@H]1/C(=C/CO)O[C@@H]2CC(=O)N21 [listing 1 of 2 here]
MIC (Staphylococcus aureus [14]): 0.12 µg/mL

Structure (SMILES): CC1(C)S[C@@H]2[C@H](NC(=O)[C@H](N)c3ccc(O)cc3)C(=O)N2[C@H]1C(=O)O
MIC [15]: 256 µg/mL (≈ 701 µM)

ID50 (Proteus mirabilis): > 100 µM | ID50 [3]: 4.16 µM | ID50 [6]: > 100 µM | ID50 [7]: > 100 µM | ID50 [9]: > 100 µM | ID50 [10]: > 100 µM | ID50 [11]: > 100 µM
Structure (SMILES): O=C(NCP(=O)(O)N[C@@H](C(=O)O)c1ccccc1)OCc1ccccc1

ID50 [3]: 67 µM | ID50 [6]: > 100 µM | ID50 [7]: > 100 µM
Structure (SMILES): COP(=O)(CNC(=O)OCc1ccccc1)N1CCC[C@@H]1C(=O)O (stereo partly specified)

ID50 [3]: > 100 µM | ID50 [6]: > 100 µM | ID50 [7]: > 100 µM
Structure (SMILES): COP(=O)(CNC(=O)OCc1ccccc1)N1CSC(C)(C)[C@@H]1C(=O)O (stereo partly specified)

Structure (SMILES): CC1(C)S[C@@H]2[C@H](NC(=O)C(N)c3ccc(O)cc3)C(=O)N2[C@H]1C(=O)O.O=C(NCP(=O)(O)NC(C(=O)O)c1ccccc1)OCc1ccccc1 (stereo unspecified)
MIC [1]: 32 µg/mL

Structure (SMILES): CC1(C)S[C@@H]2[C@H](NC(=O)C(N)c3ccc(O)cc3)C(=O)N2[C@H]1C(=O)O.O=C([O-])CC(NP(=O)([O-])CNC(=O)OCc1ccccc1)c1ccccc1.[Li+].[Li+] (stereo unspecified)
MIC (Staphylococcus aureus [2]): 8 µg/mL

Structure (SMILES): O=C(O)CCNP(=O)(O)CNC(=O)OCc1ccccc1
ID50 (Proteus mirabilis): > 100 µM | ID50 [3]: 0.87 µM | ID50 [6]: > 25 µM | ID50 [7]: > 50 µM | ID50 [9]: 14 µM | ID50 [10]: 33 µM | ID50 [11]: > 100 µM

Structure (SMILES): CC1(C)S[C@@H]2[C@H](NC(=O)[C@H](N)c3ccc(O)cc3)C(=O)N2[C@H]1C(=O)O.O=C(O)[C@H]1/C(=C/CO)O[C@@H]2CC(=O)N21 [listing 2 of 2 here]
MIC [16]: 16 µg/mL | MIC [17]: 256 µg/mL

Structure (SMILES): CC1(C)S[C@@H]2[C@H](NC(=O)C(N)c3ccc(O)cc3)C(=O)N2[C@H]1C(=O)O.O=C([O-])CCNP(=O)([O-])CNC(=O)OCc1ccccc1.[Li+].[Li+] (stereo partly specified)
MIC (Staphylococcus aureus [2]): 32 µg/mL

Structure (SMILES): CC1(C)S[C@@H]2[C@H](NC(=O)C(N)c3ccc(O)cc3)C(=O)N2[C@H]1C(=O)O.O=C(NCP(=O)(O)N[C@@H](Cc1ccccc1)C(=O)O)OCc1ccccc1
MIC [1]: 128 µg/mL

Structure (SMILES): CC1(C)S[C@@H]2[C@H](NC(=O)C(N)c3ccc(O)cc3)C(=O)N2[C@H]1C(=O)O.O=C(NCP(=O)([O-])N[C@@H](Cc1ccccc1)C(=O)[O-])OCc1ccccc1.[Li+].[Li+]
MIC (Staphylococcus aureus [2]): 64 µg/mL

From ChEMBL document CHEMBL1127929, “The synthesis and serine -lactamase inhibitory activity of some phosphonamidate analogues of dipeptides” (1994)
